In experiment [1] the target is T1, wild-type hSGLT2 (membrane fraction of hSGLT2 and MAP17 expressing cells) (Homo sapiens, UniProt P31639).
T1 construct: expressed in transfected cells; host or cells: Expi293 cells, crude membrane fraction
T1 sequence (P31639 1-672): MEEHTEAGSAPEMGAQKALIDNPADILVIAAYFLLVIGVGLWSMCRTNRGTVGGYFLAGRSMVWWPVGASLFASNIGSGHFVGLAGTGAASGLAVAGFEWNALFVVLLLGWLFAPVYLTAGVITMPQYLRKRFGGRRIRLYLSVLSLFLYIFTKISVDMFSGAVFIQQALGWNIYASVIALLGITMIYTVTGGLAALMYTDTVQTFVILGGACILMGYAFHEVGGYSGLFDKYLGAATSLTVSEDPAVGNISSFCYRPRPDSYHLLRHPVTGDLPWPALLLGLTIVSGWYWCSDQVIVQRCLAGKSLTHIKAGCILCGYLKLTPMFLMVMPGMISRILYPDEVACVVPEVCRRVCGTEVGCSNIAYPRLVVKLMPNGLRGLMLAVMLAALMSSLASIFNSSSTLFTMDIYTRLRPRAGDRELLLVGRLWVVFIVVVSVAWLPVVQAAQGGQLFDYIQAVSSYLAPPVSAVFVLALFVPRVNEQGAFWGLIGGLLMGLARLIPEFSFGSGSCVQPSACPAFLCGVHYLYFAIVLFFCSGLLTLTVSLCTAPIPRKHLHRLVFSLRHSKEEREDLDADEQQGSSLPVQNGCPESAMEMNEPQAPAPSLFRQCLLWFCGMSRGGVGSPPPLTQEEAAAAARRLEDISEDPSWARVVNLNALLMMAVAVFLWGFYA
T1 sequence (Q13113 1-114 partner): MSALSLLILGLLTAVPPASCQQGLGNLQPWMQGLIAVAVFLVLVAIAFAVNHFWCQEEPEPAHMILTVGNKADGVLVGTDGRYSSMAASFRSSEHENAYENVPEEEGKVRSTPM
The experiment in a line: SGLT2 inhibitor-binding assay via affinity selection–mass spectrometry, crude membrane, WT. The procedure: (§1) To examine the inhibition of binding to the crude membrane, mammalian Expi293 cells were co-transfected with the hMAP17 and hSGLT2 plasmids, as described. The cells were collected and disrupted by sonication in a hypotonic buffer (50 mM HEPES–NaOH (pH 7.5), 10 mM KCl and protease inhibitor cocktail) or Na^+-free hypotonic buffer (50 mM Tris–HCl (pH 7.5), 10 mM KCl and protease inhibitor cocktail). The cell debris were removed by centrifugation (2,000g, 5 min, 4 °C). The membrane fraction was collected by ultracentrifugation (112,000g, 30 min, 4 °C) and stored at −80 °C before use. The crude membrane (250 μg per sample) was incubated with SGLT2 inhibitor in an assay buffer (100 mM NaCl and 10 mM HEPES/Tris, pH 7.4) or Na^+-free assay buffer (100 mM choline chloride and 10 mM HEPES/Tris, pH 7.4) at room temperature for 2 h. Reactions were terminated by filtration through a GF/C filter plate (Corning) presoaked in assay buffer containing 0.1% bovine serum albumin. The sample in the filter plate was washed three times with the assay buffer and eluted with acetonitrile: water (80:20, v/v). The extract solution from the filter plate was diluted with water containing candesartan as an internal standard, and the SGLT2 inhibitor concentration was quantified via LC–MS/MS.
(§2) Nonspecific binding was measured using the crude membrane of nontransfected Expi293 cells. Specific binding was calculated by subtracting nonspecific binding from the binding of hSGLT2-expressing cells. Specific binding was normalized to hSGLT2 protein expression levels, measured via FSEC. The equilibrium dissociation constant (Kd) and maximum number of binding sites (Bmax) were calculated via nonlinear regression in GraphPad Prism 8.4.3. The specific binding of the hSGLT2 mutants was normalized to the Bmax of WT hSGLT2.
(§3) The concentrations of the extract solution from the filter plate and of the cell lysate were quantified using a tandem mass spectrometry QTRAP6500 System (SCIEX) coupled with an ACQUITY UPLC system (Waters) using the internal standard method. Mobile phases A and B used 10 mM of ammonium bicarbonate and acetonitrile, respectively.

In experiment [2] the test system is nontransfected Expi293 cells (Mock). The experiment in a line: Nonspecific binding to crude membrane of nontransfected cells (Mock). Set-up: species or system human. To be noted: Mock. On the procedure: as §1, §2, §3
The next experiment concerns SGLT1 and SGLT2. The settings on record: cited from earlier work; for subtype specificity of inhibition (SGLT1 vs SGLT2): in words.
A further experiment concerns the target T2, hSGLT2 S74A (Homo sapiens, UniProt P31639, S74A).
T2 construct: expressed in transfected cells; host or cells: Expi293 cells, crude membrane fraction
Format: binding. To be noted: S74A mutant. An excerpt: (§4) hSGLT2 complementary DNA and human MAP17 cDNA were synthesized and codon-optimized for expression in human cell lines. Both cDNAs were cloned into the pcDNA3.4 vector. The hSGLT2 sequence was fused with an N-terminal signal sequence from human trypsinogen 1, a His10 tag, and sfGFP, followed by a human rhinovirus 3C protease (HRV3C protease) recognition site. Point mutations were introduced into this construct using site-directed mutagenesis. These plasmids were utilized for all experimental procedures conducted in this study.
To examine the inhibition of binding to the crude membrane, mammalian Expi293 cells were co-transfected with the hMAP17 and hSGLT2 plasmids, as described. The cells were collected and disrupted by sonication in a hypotonic buffer (50 mM HEPES–NaOH (pH 7.5), 10 mM KCl and protease inhibitor cocktail) or Na^+-free hypotonic buffer (50 mM Tris–HCl (pH 7.5), 10 mM KCl and protease inhibitor cocktail). The cell debris were removed by centrifugation (2,000g, 5 min, 4 °C). The membrane fraction was collected by ultracentrifugation (112,000g, 30 min, 4 °C) and stored at −80 °C before use. […] The extract solution from the filter plate was diluted with water containing candesartan as an internal standard, and the SGLT2 inhibitor concentration was quantified via LC–MS/MS.
(§5) Nonspecific binding was measured using the crude membrane of nontransfected Expi293 cells. Specific binding was calculated by subtracting nonspecific binding from the binding of hSGLT2-expressing cells. Specific binding was normalized to hSGLT2 protein expression levels, measured via FSEC. The equilibrium dissociation constant (Kd) and maximum number of binding sites (Bmax) were calculated via nonlinear regression in GraphPad Prism 8.4.3. […]
The concentrations of the extract solution from the filter plate and of the cell lysate were quantified using a tandem mass spectrometry QTRAP6500 System (SCIEX) coupled with an ACQUITY UPLC system (Waters) using the internal standard method. […]

A further experiment deals with T3, hSGLT2 D201A (Homo sapiens, UniProt P31639, D201A).
T3 sequence (P31639 1-672 D201A): T1 sequence (P31639 1-672) with D201A
T3 sequence (Q13113 1-114 partner): T1 sequence (Q13113 1-114 partner)
The experiment in a line: SGLT2 inhibitor-binding assay (AS-MS), crude membrane, D201A mutant. Set-up: expressed in transfected cells; host or cells: Expi293 cells, crude membrane fraction. To be noted: D201A mutant.
Excerpt: as §4
To examine the inhibition of binding to the crude membrane, mammalian Expi293 cells were co-transfected with the hMAP17 and hSGLT2 plasmids, as described. […] The extract solution from the filter plate was diluted with water containing candesartan as an internal standard, and the SGLT2 inhibitor concentration was quantified via LC–MS/MS.
as §5

In a further experiment the test system is SGLT2. Also on record: method as in Hummel et al., Am. J. Physiol., Cell Physiol., 2011. The settings on record: authors' rebuttal in peer review file; ref Hummel et al., Am. J. Physiol., Cell Physiol., 2011; cited from earlier work.
The next experiment deals with SGLT1 T395A. Also on record: method as in PMID 30532032. The settings on record: replacement of T395 with Ala at the Na3 site; cited from earlier work.
In a further experiment the test system is hSGLT2 V95I. Also on record: method as in PMID 34880493. To be noted: cited from earlier work.

Molecules are shown by their SMILES. Substitutions are numbered along the chain they refer to. Values joined by “and” are separate entries in the source; they are usually repeats but may differ in a detail not shown here. Equal values may be shown once.

T2 sequence (P31639 whole entry S74A, one chain of several): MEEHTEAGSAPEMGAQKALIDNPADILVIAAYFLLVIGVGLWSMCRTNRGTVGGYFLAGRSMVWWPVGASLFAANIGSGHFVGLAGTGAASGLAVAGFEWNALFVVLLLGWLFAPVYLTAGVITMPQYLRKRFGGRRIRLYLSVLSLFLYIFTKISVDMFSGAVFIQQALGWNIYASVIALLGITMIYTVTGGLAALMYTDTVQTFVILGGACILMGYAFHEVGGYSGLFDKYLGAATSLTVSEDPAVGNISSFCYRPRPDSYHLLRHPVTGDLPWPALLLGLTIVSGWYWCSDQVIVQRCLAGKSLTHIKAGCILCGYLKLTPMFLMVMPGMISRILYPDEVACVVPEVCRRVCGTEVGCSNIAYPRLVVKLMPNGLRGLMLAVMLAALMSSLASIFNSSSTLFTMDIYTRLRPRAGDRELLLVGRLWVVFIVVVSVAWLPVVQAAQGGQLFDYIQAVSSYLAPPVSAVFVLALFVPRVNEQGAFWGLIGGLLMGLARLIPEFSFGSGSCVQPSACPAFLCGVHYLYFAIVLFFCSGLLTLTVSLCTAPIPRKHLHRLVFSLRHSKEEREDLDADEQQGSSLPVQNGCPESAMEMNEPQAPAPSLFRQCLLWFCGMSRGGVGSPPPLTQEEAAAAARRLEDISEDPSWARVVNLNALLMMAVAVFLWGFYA

Take `CCOc1ccc(Cc2cc([C@@H]3O[C@H](CO)[C@@H](O)[C@H](O)[C@H]3O)ccc2Cl)cc1` [Dapagliflozin]: the “Binding (% of hSGLT2)” value was 83.4507 % of hSGLT2 and 95.0704 % of hSGLT2 and 121.479 % of hSGLT2 in experiment [1] (10 nM dapagliflozin); 2.53 % of hSGLT2 and 3.518 % of hSGLT2 and 3.481 % of hSGLT2 in experiment [2] (10 nM dapagliflozin). Moreover, the “fold difference in inhibition between SGLT1 and SGLT2” value in the experiment on SGLT1 and SGLT2 was “more than 1,000 fold”. The “subtype specificity of inhibition (SGLT1 vs SGLT2)” value in the experiment on SGLT1 and SGLT2 was “SGLT2-specific inhibition”.

Usually Kd stands for the concentration at which binding is half-saturated. High values mean lower affinity, low ones higher affinity. In the case of `O=C(CCc1ccc(O)cc1)c1c(O)cc(O)cc1O` [Phloretin], the “phloretin binding (in words)” value in experiment [1] (WT) is reported as “binds as effectively as phlorizin”; at hSGLT2 S74A, “not”; on hSGLT2 D201A, “not”. The Bmax in experiment [1] (phloretin, WT, mean ± SEM n=4) is 51.7 ± 3.46 pmol/mg-protein. Besides, in experiment [1] (phloretin, WT, mean ± SEM n=4), the Kd is 12000 ± 1900 nM.

Consider `OC[C@H]1O[C@@H](n2cc(Cc3ccc(C4CC4)cc3)c3c(F)cccc32)[C@H](O)[C@@H](O)[C@@H]1O` [TA-1887], for which the “Binding (% of hSGLT2)” value in experiment [1] (10 nM TA-1887) was 96.8051 % of hSGLT2 and 101.597 % of hSGLT2; in experiment [2] (10 nM TA-1887), 13.0351 % of hSGLT2 and 13.9457 % of hSGLT2 and 14.6645 % of hSGLT2. Moreover, the Bmax in experiment [1] (Na(+), mean ± SEM n=3) is 4.67 ± 0.49 pmol/mg-protein; in experiment [1] (Na(-), mean ± SEM n=3), 0.705 ± 0.155 pmol/mg-protein. Besides, the Kd in experiment [1] (Na(+), mean ± SEM n=3) amounted to 115 ± 28 nM; in experiment [1] (Na(-), mean ± SEM n=3), 86.4 ± 50 nM. In experiment [1] (absence vs presence of Na+), the “Bmax in the absence versus the presence of Na+ (in words)” value is “partially lower”. In the experiment with SGLT1 and SGLT2, the “subtype specificity of inhibition (SGLT1 vs SGLT2)” value was “SGLT2-specific inhibition”.

For `OC[C@H]1OC(O)[C@H](O)[C@@H](O)[C@@H]1O` (stereo partly shown) [glucose], the Michaelis constant in the experiment on SGLT2 is recorded as 5 mM. The “reduction in glucose affinity” value with SGLT1 T395A is recorded as “more than 30 fold”.

For `CS[C@H]1O[C@@H](c2ccc(C)c(Cc3ccc(CCCC(=O)NC(C)(C)C(=O)NCCN(C)C)cc3)c2)[C@H](O)[C@@H](O)[C@@H]1O` [LX-2761], the “subtype specificity of inhibition (SGLT1 vs SGLT2)” value in the experiment on SGLT1 and SGLT2 was “dual inhibitors”.

On to `CCOc1ccc(Cc2cc([C@@H]3O[C@H](SC)[C@@H](O)[C@H](O)[C@H]3O)ccc2Cl)cc1` [Sotagliflozin], for which the “Binding (% of hSGLT2)” value in experiment [1] (50 nM sotagliflozin) is 96.1006 % of hSGLT2 and 97.9874 % of hSGLT2 and 105.912 % of hSGLT2; in experiment [2] (50 nM sotagliflozin), 19.1195 % of hSGLT2 and 17.8616 % of hSGLT2 and 17.9874 % of hSGLT2. For the same compound, the “subtype specificity of inhibition (SGLT1 vs SGLT2)” value in the experiment on SGLT1 and SGLT2 is on record as “dual inhibitors”.

For the compound `OC[C@H]1O[C@@H](c2ccc(Cl)c(Cc3ccc(O[C@H]4CCOC4)cc3)c2)[C@H](O)[C@@H](O)[C@@H]1O` [empagliflozin], the “subtype specificity of inhibition (SGLT1 vs SGLT2)” value in the experiment on SGLT1 and SGLT2 is given as “SGLT2-specific inhibition”. For the same compound, the “effect of V95I on inhibitory activity” value with hSGLT2 V95I is reported as “reduces the inhibitory activity”.

The values are drawn from article PMC10803289, “Transport and inhibition mechanism of the human SGLT2–MAP17 glucose transporter” (Nature Structural & Molecular Biology, 2023).
